{"source": "patent US8921362B2", "about": "“6,7-dialkoxy quinazoline derivatives and methods of treating drug resistant and other tumors” (Natco Pharma Limited, priority 2008, dated 2014)", "experiment_in_all_cases": "KinomeScan", "format_in_all_cases": "binding", "conditions_in_all_cases": "read-out: % Ctrl @ 10000 nM", "key": {"[1]": {"target": "T1, DRAK2 (Homo sapiens, UniProt O94768)", "T1 construct": "purchased Ambit Biosciences Corp (KinomeScan); host or cells: T7 phage in E. coli host derived from BL21", "summary_of_the_method": "(§1)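 Lysates from phage-infected E. coli (32° C., shaking until lysis) were filtered and exposed to biotin-blocked ligand beads together with test compound. Eluted phage was counted by quantitative PCR.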"}, "[2]": {"target": "T2, STK36 (Homo sapiens, UniProt Q9NRP7)", "T2 construct": "host or cells: T7 phage grown in E. coli (BL21-derived)", "summary_of_the_method": "as §1"}, "[3]": {"target": "T3, MEK1 (Homo sapiens, UniProt Q02750)", "T3 construct": "host or cells: E. coli host derived from the BL21 strain, infected with T7 phage", "summary_of_the_method": "as §1"}, "[4]": {"target": "T4, EPHA8 (Homo sapiens, UniProt P29322)", "T4 construct": "purchased Ambit Biosciences Corp; host or cells: T7 phage in E. coli host derived from BL21", "T4 sequence (P29322 28-1005)": "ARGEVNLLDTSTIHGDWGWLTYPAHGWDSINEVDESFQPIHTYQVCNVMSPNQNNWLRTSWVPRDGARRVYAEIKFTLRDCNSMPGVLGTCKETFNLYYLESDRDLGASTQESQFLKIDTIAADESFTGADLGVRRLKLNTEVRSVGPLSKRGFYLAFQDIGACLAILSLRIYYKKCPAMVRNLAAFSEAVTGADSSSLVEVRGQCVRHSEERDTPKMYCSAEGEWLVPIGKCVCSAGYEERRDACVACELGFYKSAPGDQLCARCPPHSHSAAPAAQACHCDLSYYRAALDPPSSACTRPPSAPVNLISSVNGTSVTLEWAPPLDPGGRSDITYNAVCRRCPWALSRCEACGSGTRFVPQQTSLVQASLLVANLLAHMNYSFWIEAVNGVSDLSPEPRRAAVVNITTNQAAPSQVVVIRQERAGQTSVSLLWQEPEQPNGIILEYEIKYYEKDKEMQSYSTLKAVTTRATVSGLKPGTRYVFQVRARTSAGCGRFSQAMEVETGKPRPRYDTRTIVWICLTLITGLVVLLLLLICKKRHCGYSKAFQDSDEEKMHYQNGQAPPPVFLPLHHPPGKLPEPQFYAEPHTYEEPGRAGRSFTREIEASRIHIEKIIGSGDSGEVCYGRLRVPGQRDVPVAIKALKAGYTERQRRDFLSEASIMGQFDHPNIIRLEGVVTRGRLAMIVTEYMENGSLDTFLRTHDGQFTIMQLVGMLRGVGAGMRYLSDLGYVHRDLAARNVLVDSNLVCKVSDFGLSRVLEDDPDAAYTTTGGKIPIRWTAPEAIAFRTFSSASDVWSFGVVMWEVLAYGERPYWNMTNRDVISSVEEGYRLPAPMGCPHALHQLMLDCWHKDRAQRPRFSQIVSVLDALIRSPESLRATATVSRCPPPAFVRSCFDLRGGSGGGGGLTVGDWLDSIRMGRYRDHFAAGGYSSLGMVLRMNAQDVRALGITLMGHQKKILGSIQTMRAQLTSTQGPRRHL", "summary_of_the_method": "as §1"}, "[5]": {"target": "T5, PYK2 (Homo sapiens, UniProt Q14289)", "T5 construct": "host or cells: E. coli host derived from BL21, T7 phage display", "summary_of_the_method": "as §1"}, "[6]": {"target": "T6, EGFR (Homo sapiens, UniProt P00533)", "T6 construct": "purchased Ambit Biosciences Corp (KinomeScan); host or cells: T7 phage in E. coli host derived from BL21", "T6 sequence (P00533 25-1210)": "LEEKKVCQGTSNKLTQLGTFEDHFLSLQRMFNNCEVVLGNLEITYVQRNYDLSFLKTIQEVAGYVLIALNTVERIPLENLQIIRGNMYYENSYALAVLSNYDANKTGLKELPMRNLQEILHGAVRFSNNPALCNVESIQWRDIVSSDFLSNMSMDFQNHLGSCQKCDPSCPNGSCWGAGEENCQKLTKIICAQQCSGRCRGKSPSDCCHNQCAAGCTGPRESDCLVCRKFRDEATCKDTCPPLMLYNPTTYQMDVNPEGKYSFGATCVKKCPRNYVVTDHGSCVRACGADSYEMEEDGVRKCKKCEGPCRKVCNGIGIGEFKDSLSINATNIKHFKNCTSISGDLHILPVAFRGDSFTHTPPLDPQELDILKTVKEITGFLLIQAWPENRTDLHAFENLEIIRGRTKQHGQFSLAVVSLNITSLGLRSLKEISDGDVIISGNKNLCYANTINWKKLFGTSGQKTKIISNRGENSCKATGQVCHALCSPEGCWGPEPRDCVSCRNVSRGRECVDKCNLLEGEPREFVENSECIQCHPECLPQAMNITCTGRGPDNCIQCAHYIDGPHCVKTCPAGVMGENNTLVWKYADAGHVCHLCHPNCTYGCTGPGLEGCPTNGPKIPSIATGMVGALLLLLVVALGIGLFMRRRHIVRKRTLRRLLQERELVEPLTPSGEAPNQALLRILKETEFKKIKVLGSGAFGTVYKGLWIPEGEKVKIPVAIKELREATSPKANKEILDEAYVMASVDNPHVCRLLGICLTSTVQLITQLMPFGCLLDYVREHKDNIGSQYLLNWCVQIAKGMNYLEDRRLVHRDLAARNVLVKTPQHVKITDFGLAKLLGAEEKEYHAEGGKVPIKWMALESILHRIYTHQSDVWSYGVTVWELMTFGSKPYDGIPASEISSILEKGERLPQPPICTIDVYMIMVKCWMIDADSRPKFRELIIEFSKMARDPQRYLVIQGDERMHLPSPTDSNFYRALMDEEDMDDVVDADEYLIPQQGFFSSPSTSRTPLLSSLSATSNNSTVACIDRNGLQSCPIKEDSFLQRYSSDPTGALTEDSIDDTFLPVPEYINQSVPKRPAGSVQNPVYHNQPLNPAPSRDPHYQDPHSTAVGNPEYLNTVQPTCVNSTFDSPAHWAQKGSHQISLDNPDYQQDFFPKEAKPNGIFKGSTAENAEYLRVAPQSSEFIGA", "summary_of_the_method": "as §1"}, "[7]": {"target": "T7, ADCK4 (Homo sapiens, UniProt Q96D53)", "T7 construct": "host or cells: E. coli (BL21-derived), T7 phage lysate", "summary_of_the_method": "as §1"}, "[8]": {"target": "T8, PRKCD (Homo sapiens, UniProt Q05655)", "T8 construct": "host or cells: T7 phage in E. coli host derived from BL21", "summary_of_the_method": "as §1"}, "[9]": {"target": "T9, p38-beta (Homo sapiens, UniProt Q15759)", "T9 construct": "host or cells: E. coli host derived from BL21, infected with T7 phage", "summary_of_the_method": "as §1"}, "[10]": {"target": "T10, SgK085 (Homo sapiens, UniProt Q86YV6)", "T10 construct": "host or cells: T7 phage grown in E. coli (BL21-derived)", "summary_of_the_method": "as §1"}, "[11]": {"target": "T11, TRKC (Homo sapiens, UniProt Q16288)", "T11 construct": "host or cells: E. coli host derived from BL21, T7 phage", "T11 sequence (Q16288 32-839)": "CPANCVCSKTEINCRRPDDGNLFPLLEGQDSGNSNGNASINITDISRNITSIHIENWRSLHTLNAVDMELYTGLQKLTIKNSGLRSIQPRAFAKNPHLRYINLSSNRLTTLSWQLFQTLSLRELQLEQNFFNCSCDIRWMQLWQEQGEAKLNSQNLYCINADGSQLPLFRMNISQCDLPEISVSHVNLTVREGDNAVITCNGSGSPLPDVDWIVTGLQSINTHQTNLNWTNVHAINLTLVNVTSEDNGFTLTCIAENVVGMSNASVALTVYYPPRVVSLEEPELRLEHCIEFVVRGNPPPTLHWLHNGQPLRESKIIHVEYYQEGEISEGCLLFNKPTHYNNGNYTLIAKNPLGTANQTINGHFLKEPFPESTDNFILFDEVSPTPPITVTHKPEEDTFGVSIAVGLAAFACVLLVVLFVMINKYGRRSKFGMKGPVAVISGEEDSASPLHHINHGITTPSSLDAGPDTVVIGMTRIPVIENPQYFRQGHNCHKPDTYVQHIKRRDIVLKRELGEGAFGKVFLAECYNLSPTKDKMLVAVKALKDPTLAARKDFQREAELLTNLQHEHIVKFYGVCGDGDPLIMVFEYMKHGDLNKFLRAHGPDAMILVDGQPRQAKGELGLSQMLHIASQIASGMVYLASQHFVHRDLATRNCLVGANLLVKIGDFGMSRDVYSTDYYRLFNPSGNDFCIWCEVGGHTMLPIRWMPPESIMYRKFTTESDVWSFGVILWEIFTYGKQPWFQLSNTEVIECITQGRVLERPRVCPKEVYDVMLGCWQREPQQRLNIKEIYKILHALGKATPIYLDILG", "summary_of_the_method": "as §1"}, "[12]": {"target": "T12, LTK (Homo sapiens, UniProt P29376)", "T12 construct": "host or cells: E. coli host derived from the BL21 strain, infected with T7 phage", "summary_of_the_method": "as §1"}, "[13]": {"target": "T13, BIKE (Homo sapiens, UniProt Q9NSY1)", "T13 construct": "host or cells: E. coli host derived from BL21", "summary_of_the_method": "as §1"}, "[14]": {"target": "T14, LCK (Homo sapiens, UniProt P06239)", "T14 construct": "host or cells: T7 phage grown in E. coli host derived from BL21", "summary_of_the_method": "as §1"}, "[15]": {"target": "T15, BRAF (Homo sapiens, UniProt P15056)", "T15 construct": "host or cells: E. coli host derived from BL21", "summary_of_the_method": "as §1"}, "[16]": {"target": "T16, MST4 (Homo sapiens, UniProt Q9P289)", "T16 construct": "host or cells: T7 phage grown in E. coli host derived from BL21", "summary_of_the_method": "as §1"}, "[17]": {"target": "T17, EPHB3 (Homo sapiens, UniProt P54753)", "T17 construct": "purchased Ambit Biosciences Corp; host or cells: T7 phage in E. coli host derived from BL21", "summary_of_the_method": "as §1"}, "[18]": {"target": "T18, RPS6KA3(Kin.Dom.-1-N-terminal) (Homo sapiens, UniProt P51812)", "T18 construct": "RPS6KA3(Kin.Dom.-1-N-terminal); host or cells: E. coli host derived from BL21, T7 phage display", "T18 sequence (P51812 68-327 limits assumed)": "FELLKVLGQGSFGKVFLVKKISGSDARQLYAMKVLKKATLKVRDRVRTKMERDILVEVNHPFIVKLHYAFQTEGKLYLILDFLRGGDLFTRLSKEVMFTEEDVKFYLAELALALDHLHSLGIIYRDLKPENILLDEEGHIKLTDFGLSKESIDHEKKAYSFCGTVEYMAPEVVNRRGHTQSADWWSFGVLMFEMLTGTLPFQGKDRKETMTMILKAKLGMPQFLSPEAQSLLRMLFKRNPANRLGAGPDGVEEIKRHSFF", "summary_of_the_method": "as §1"}, "[19]": {"target": "T19, PRKCE (Homo sapiens, UniProt Q02156)", "T19 construct": "host or cells: T7 phage in E. coli host derived from BL21", "summary_of_the_method": "as §1"}, "[20]": {"target": "T20, ZAK (Homo sapiens, UniProt Q9NYL2)", "T20 construct": "host or cells: T7 phage grown in an E. coli host derived from BL21", "summary_of_the_method": "as §1"}, "[21]": {"target": "T21, CSNK1A1L (Homo sapiens, UniProt Q8N752)", "T21 construct": "host or cells: T7 phage in E. coli host derived from BL21", "summary_of_the_method": "as §1"}, "[22]": {"target": "T22, MKNK2 (Homo sapiens, UniProt Q9HBH9)", "T22 construct": "host or cells: T7 phage grown in E. coli host derived from BL21", "summary_of_the_method": "as §1"}, "[23]": {"target": "T23, CLK1 (Homo sapiens, UniProt P49759)", "T23 construct": "host or cells: T7 phage in E. coli host derived from BL21", "summary_of_the_method": "as §1"}, "[24]": {"target": "T24, CAMKK1 (Homo sapiens, UniProt Q8N5S9)", "T24 construct": "host or cells: T7 phage in E. coli host derived from BL21", "summary_of_the_method": "as §1"}, "[25]": {"target": "T25, TNK1 (Homo sapiens, UniProt Q13470)", "T25 construct": "host or cells: E. coli host derived from BL21, T7 phage", "summary_of_the_method": "as §1"}, "[26]": {"target": "T26, ZAP70 (Homo sapiens, UniProt P43403)", "T26 construct": "host or cells: T7 phage grown in an E. coli host derived from BL21", "summary_of_the_method": "as §1"}, "[27]": {"target": "T27, PLK3 (Homo sapiens, UniProt Q9H4B4)", "T27 construct": "host or cells: T7 phage in E. coli host derived from BL21", "summary_of_the_method": "as §1"}, "[28]": {"target": "T28, ULK2 (Homo sapiens, UniProt Q8IYT8)", "T28 construct": "host or cells: E. coli host derived from BL21, T7 phage", "summary_of_the_method": "as §1"}, "[29]": {"target": "T29, CAMK1G (Homo sapiens, UniProt Q96NX5)", "T29 construct": "host or cells: E. coli host derived from BL21", "summary_of_the_method": "as §1"}, "[30]": {"target": "T30, RPS6KA5(Kin.Dom.-1-N-terminal) (Homo sapiens, UniProt O75582)", "T30 construct": "RPS6KA5(Kin.Dom.-1-N-terminal); host or cells: E. coli host derived from BL21, T7 phage display", "summary_of_the_method": "as §1"}, "[31]": {"target": "T31, KIT(V559D) (Homo sapiens, UniProt P10721, V559D)", "T31 construct": "host or cells: T7 phage grown in E. coli host derived from BL21", "T31 sequence (P10721 26-976 V559D)": "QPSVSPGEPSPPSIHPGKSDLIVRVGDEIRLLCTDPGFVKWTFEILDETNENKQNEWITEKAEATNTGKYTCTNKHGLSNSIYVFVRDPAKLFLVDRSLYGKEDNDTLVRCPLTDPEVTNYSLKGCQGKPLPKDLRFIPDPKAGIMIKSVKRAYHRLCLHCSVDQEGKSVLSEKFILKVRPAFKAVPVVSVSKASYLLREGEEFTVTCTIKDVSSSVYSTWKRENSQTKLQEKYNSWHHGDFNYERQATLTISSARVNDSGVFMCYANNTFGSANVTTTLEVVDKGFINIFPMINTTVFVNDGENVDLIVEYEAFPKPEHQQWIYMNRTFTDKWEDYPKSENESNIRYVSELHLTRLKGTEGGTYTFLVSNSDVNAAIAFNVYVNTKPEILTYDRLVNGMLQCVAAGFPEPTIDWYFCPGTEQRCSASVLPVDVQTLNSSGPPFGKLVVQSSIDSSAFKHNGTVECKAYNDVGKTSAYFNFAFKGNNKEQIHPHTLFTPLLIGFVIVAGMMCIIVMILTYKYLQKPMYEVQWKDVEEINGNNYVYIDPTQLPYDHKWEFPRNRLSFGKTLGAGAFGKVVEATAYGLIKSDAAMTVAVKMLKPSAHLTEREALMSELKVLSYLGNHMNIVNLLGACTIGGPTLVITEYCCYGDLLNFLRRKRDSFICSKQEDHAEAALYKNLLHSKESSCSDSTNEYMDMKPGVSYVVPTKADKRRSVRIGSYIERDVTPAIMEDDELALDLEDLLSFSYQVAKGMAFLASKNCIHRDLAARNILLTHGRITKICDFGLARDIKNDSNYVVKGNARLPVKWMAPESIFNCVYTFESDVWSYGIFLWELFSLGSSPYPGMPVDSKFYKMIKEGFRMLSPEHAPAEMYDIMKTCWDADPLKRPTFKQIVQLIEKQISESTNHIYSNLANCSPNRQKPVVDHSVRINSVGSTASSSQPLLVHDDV", "summary_of_the_method": "as §1"}, "[32]": {"target": "T32, LIMK1 (Homo sapiens, UniProt P53667)", "T32 construct": "host or cells: T7 phage grown in E. coli host derived from BL21", "T32 sequence (P53667 whole entry)": "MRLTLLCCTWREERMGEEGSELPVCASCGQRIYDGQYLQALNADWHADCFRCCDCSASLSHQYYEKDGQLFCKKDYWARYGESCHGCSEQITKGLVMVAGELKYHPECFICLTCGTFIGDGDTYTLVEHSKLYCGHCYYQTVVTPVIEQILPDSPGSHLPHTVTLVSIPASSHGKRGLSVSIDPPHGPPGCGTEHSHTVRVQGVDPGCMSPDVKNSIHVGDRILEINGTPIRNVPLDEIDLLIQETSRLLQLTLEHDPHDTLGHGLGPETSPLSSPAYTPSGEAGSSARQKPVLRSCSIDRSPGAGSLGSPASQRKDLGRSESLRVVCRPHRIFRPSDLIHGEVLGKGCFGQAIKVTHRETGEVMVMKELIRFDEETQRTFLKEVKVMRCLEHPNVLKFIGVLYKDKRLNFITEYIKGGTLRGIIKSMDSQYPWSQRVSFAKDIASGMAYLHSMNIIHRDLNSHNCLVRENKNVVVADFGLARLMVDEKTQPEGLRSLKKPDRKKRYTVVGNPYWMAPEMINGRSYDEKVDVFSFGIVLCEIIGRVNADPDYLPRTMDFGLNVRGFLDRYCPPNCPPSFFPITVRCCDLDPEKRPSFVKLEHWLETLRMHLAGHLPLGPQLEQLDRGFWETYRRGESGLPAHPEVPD", "summary_of_the_method": "as §1"}}, "data": [{"compound": "C#Cc1cccc(Nc2ncnc3cc(OC)c(OCCCN4CCOCC4)cc23)c1", "note": "[NRC-2694, N-(3-ethynylphenyl)-7-methoxy-6-[3-(4-morpholinyl)propoxy]-4-quinazolinamine]", "values": [{"measurement": "remaining binding at 10 µM", "setting": "[1]", "result": 58, "unit": "%"}, {"measurement": "remaining binding at 10 µM", "setting": "[2]", "result": 4.6, "unit": "%"}, {"measurement": "remaining binding at 10 µM", "setting": "[3]", "result": 50, "unit": "%"}, {"measurement": "remaining binding at 10 µM", "setting": "[4]", "result": 66, "unit": "%"}, {"measurement": "remaining binding at 10 µM", "setting": "[5]", "result": 71, "unit": "%"}, {"measurement": "remaining binding at 10 µM", "setting": "[6]", "result": 0, "unit": "%"}, {"measurement": "remaining binding at 10 µM", "setting": "[7]", "result": 14, "unit": "%"}, {"measurement": "remaining binding at 10 µM", "setting": "[8]", "result": 84, "unit": "%"}, {"measurement": "remaining binding at 10 µM", "setting": "[9]", "result": 100, "unit": "%"}, {"measurement": "remaining binding at 10 µM", "setting": "[10]", "result": 84, "unit": "%"}, {"measurement": "remaining binding at 10 µM", "setting": "[11]", "result": 80, "unit": "%"}, {"measurement": "remaining binding at 10 µM", "setting": "[12]", "result": 3.8, "unit": "%"}, {"measurement": "remaining binding at 10 µM", "setting": "[13]", "result": 36, "unit": "%"}, {"measurement": "remaining binding at 10 µM", "setting": "[14]", "result": 1.5, "unit": "%"}, {"measurement": "remaining binding at 10 µM", "setting": "[15]", "result": 81, "unit": "%"}, {"measurement": "remaining binding at 10 µM", "setting": "[16]", "result": 29, "unit": "%"}, {"measurement": "remaining binding at 10 µM", "setting": "[17]", "result": 75, "unit": "%"}, {"measurement": "remaining binding at 10 µM", "setting": "[18]", "result": 94, "unit": "%"}, {"measurement": "remaining binding at 10 µM", "setting": "[19]", "result": 65, "unit": "%"}, {"measurement": "remaining binding at 10 µM", "setting": "[20]", "result": 74, "unit": "%"}, {"measurement": "remaining binding at 10 µM", "setting": "[21]", "result": 44, "unit": "%"}, {"measurement": "remaining binding at 10 µM", "setting": "[22]", "result": 16, "unit": "%"}, {"measurement": "remaining binding at 10 µM", "setting": "[23]", "result": 31, "unit": "%"}, {"measurement": "remaining binding at 10 µM", "setting": "[24]", "result": 71, "unit": "%"}, {"measurement": "remaining binding at 10 µM", "setting": "[25]", "result": 41, "unit": "%"}, {"measurement": "remaining binding at 10 µM", "setting": "[26]", "result": 100, "unit": "%"}, {"measurement": "remaining binding at 10 µM", "setting": "[27]", "result": 97, "unit": "%"}, {"measurement": "remaining binding at 10 µM", "setting": "[28]", "result": 39, "unit": "%"}, {"measurement": "remaining binding at 10 µM", "setting": "[29]", "result": 75, "unit": "%"}, {"measurement": "remaining binding at 10 µM", "setting": "[30]", "result": 85, "unit": "%"}, {"measurement": "remaining binding at 10 µM", "setting": "[31]", "result": 17, "unit": "%"}, {"measurement": "remaining binding at 10 µM", "setting": "[32]", "result": 62, "unit": "%"}]}]}
